Article PMC11843658 (Journal of Enzyme Inhibition and Medicinal Chemistry, 2025)

What was measured:
HepG2 cells [1] = assay: CCK8 assay, HepG2 liver cancer cells; format: cell-based; details: Homo sapiens
Description: (§1) C42B, PC3, Caco-2, HepG2, MCF7, HL-60, 8505 C, OVCAR-3, and A549 were cultured to screen the broad-spectrum antiproliferative activity of compound 14. For above cell lines, three thousand cells per well were seeded in the 96-well plate and treated by compound 14 for 48 or 72 h at different concentrations (0, 5, 10, and 20 μM). In addition, HepG2, HEP3B, HUH6, and HUH7 were cultured to screen its antiproliferative activity against liver cancer cell lines. For these liver cancer cell lines, two thousand cells per well were seeded in the 96-well plate and treated by compound 14 for 48 h at different concentrations (0, 0.625, 1.25, 2.5, and 5 μM). Then, 10 μl of CCK8 was added into each well and cells were incubated in a humidified atmosphere of 5% CO2 at 37 °C for 4 h. The 96-well plate was measured with a microplate reader (Bio-Tek, San Diego, CA) at a wavelength of 450 nm to calculate IC50 values.

HL-60 cells = assay: CCK8 assay, HL-60 leukaemia cells; format: cell-based; details: Homo sapiens, 10 μM, 48 h, read-out: cell viability rate
Description: as §1

A549 cells = assay: CCK8 assay, A549 lung cancer cells; format: cell-based; details: Homo sapiens, 10 μM, 48 h, read-out: cell viability rate
Description: as §1

HEP3B cells = assay: CCK8 assay, HEP3B liver cancer cells; format: cell-based; details: Homo sapiens, CCK8, 48 h, 0-5 μM, read-out: IC50, antiproliferative activity
Description: as §1

HUH6 cells = assay: CCK8 assay, HUH6 liver cancer cells; format: cell-based; details: Homo sapiens, HuH-6, CCK8, 48 h, 0-5 μM, read-out: IC50, antiproliferative activity
Description: as §1

HUH7 cells = assay: CCK8 assay, HUH7 liver cancer cells; format: cell-based; details: Homo sapiens, Huh-7, CCK8, 48 h, 0-5 μM, read-out: IC50, antiproliferative activity
Description: as §1

MAO-A = molecular target: T1, MAO-A (Homo sapiens, UniProt P21397); assay: Inhibitory activity against MAO-A (kynuramine); format: biochemical; details: tested at 250, 500, and 1000 nM
T1 construct: purchased Servicebio (Wuhan, China)
T1 sequence (P21397 whole entry, species assumed): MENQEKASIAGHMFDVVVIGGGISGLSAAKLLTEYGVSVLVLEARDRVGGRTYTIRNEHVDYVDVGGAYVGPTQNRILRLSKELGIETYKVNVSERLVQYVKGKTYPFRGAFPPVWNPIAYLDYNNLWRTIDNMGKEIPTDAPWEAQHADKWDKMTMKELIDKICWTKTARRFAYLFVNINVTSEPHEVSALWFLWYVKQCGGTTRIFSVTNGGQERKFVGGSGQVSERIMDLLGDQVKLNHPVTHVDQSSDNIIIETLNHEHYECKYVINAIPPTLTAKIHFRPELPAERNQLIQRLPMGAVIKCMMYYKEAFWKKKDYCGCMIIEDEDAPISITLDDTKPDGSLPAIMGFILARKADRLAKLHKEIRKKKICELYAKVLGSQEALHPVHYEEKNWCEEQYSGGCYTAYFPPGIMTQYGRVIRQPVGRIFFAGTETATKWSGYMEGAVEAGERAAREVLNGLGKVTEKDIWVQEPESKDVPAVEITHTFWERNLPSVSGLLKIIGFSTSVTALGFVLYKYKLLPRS
Description: (§2) In order to analyse the enzymatic selectivity of compound 14, MAO-A/B was purchased from Servicebio (Wuhan, China). MAO-A was dissolved in phosphate buffer (0.1 M, pH = 7.4) to get MAO-A enzymatic buffer with a concentration of 0.006 mg/ml. MAO-B was also dissolved in phosphate buffer (0.1 M, pH = 7.3) to get MAO-B enzymatic buffer with a concentration of 0.015 mg/mL. Kynuramine dihydrochloride (Servicebio, Wuhan, China) was used to get the assay buffer with a concentration of 40 μM for MAO-A and 20 μM for MAO-B. An aliquot of 97 μl of assay buffer and 3 μl of compound 14 at different concentrations (250, 500, and 1000 nM) were added into each well on the 96-well black plate. The plate was incubated at 37 °C for 20 min, and 80 μl of 2 N sodium hydroxide was added into each well to stop the reaction. The fluorescence of each well was measured using a microplate reader (Agilent Technologies Inc., CA) with an excitation at 310 nm and an emission at 380 nm.

MAO-B = molecular target: T2, MAO-B (Homo sapiens, UniProt P27338); assay: Inhibitory activity against MAO-B (kynuramine); format: biochemical; details: tested at 250, 500, and 1000 nM
T2 construct: purchased Servicebio (Wuhan, China)
T2 sequence (P27338 whole entry, species assumed): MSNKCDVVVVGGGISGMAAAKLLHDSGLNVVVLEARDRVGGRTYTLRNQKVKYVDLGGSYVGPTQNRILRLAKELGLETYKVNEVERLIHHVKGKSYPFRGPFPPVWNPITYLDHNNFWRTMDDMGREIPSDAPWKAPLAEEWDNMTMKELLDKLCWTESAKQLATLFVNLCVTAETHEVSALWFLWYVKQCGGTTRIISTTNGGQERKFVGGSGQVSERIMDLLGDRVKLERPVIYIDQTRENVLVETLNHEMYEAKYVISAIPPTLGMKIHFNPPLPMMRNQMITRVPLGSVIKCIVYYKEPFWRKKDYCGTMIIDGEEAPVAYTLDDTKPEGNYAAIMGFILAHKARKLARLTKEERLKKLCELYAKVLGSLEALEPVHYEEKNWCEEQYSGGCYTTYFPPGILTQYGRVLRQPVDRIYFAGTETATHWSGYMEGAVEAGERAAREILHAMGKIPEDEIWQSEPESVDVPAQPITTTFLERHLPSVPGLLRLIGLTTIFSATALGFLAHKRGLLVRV
Description: as §2

HepG2 cells [2] = assay: Wound healing and transwell assays; format: cell-based, Human; details: 48 h, compared to control group
Description: Cancer cells were seeded into a 6-well plate for 12 h and each well was scratched using a sterile micropipette tip. Cellular debris was removed by PBS solution (Servicebio, Wuhan, China), and compound 14 at different concentrations (0, 0.5 μM, 1 μM, and 2 μM) was added. The 6-well plate was incubated for 48 h and photographed on a microscope.
Cancer cells were seeded into a Transwell 24-well plate (Corning, NY) and compound 14 was added. About 20% foetal bovine serum and 1% heat-inactivated foetal bovine serum were respectively added into the lower and upper chamber. The 24-well plate was incubated for 48 h at 37 °C, and it was washed by water. Cancer cells were fixed with cold ethanol for 20 min and stained with haematoxylin solution (Servicebio, Wuhan, China).

HepG2 cells [3] = assay: Xenograft study, HepG2 cells in nude mice; format: in vivo, BALB/c nude mice; details: 60 mg/kg by gavage every day for 21 days
Description: Tumorigenesis in nude mice could stimulate the growth process of human tumours in the body, and could be used to develop and evaluate the effectiveness and safety of anti-cancer candidates. Therefore, xenograft studies in nude mice were performed to evaluate anticancer effects of compound 14. Animals were treated according to the protocols established by the ethics committee of The Fourth Clinical College of Xinxiang Medical University. The in vivo experiments were carried out in accordance with the approved guidelines and approved by the ethics committee of The Fourth Clinical College of Xinxiang Medical University. The number of ethics approvals is XMU-2024–01-03. All authors have adhered to the ARRIVE guidelines (https://arriveguidelines.org/). BALB/c nude mice were purchased from Beijing Huafukang Biotechnology Co., LTD (Beijing, China), and fifteen mice were used in this study (aged 6–7 weeks and weighing 20–30 g). Before the animal experiments, all nude mice were given a week to adjust to the clean, hygienic and specific-pathogen-free environment. All nude mice were taken care of instainless steel cages with a constant temperature of 60% humidity, 25 °C and a 12/12 light/dark cycle. Nude mice were fed with refreshing water and nourishing food everyday.
Then, nude mice were anaesthetised with 2% isoflurane and 0.3 l/min of oxygen by the small animal anaesthesia machine (Beijing Yi Zejia Technology Co., LTD, Beijing, China). 3 × 10^5 human liver cancer HepG2 cells were subcutaneously injected in the right armpit of mice. Until the volume of tumours reached 60–100 mm^3, all mice were randomly divided into three groups and each group had five nude mice. An amount of 60 mg/kg of compound 14, 10 mg/kg of seclidemstat and water as the control group were given by gavage every day for 21 days. Weight of mice and tumour volume were measured every 3 d. All nude mice in this xenograft studies were performed euthanizing procedures using a carbon dioxide euthanasia chamber (Shanghai Yuyan Instruments Co., Ltd, Shanghai, China). The flow rate of carbon dioxide was adjusted at 20% of the volume of the euthanasia chamber per minute. Once nude mice were unconscious, the flow rate was increased to 100% of the euthanasia chamber volume per minute. Death was confirmed by immobility, non-breathing and pupil enlargement. Tumours form BALB/c nude mice were isolated and weighed.

`COc1ccc(CN(C(=O)CCN2C(=O)CCCC2=O)c2cc(OC)c(OC)c(OC)c2)cc1` [Compound 14, 3-(2,6-dioxopiperidin-1-yl)-N-(4-methoxybenzyl)-N-(3,4,5-trimethoxyphenyl)propanamide] showed a viability at 10 µM (HepG2 cells [1]; 10 μM, 48 h, read-out: cell viability rate) of 14.2%, an IC50 (HepG2 cells [1]; CCK8, 48 h, 0-5 μM, read-out: IC50, antiproliferative activity) of 930 nM and a viability at 10 µM (HL-60 cells) of 35.7%. The viability at 10 µM (A549 cells) was 41.1%, the IC50 (HEP3B cells) was 2090 nM and the IC50 (HUH6 cells) was 1430 nM. The IC50 (HUH7 cells) was 4370 nM, the IC50 (MAO-A) was > 1000 nM and the IC50 (MAO-B) was > 1000 nM. For the same compound, the “migration of HepG2 cells” value (HepG2 cells [2]) was “significantly suppresses the migration of HepG2 cells”, the “growth of subcutaneous tumours” value (HepG2 cells [3]; nude mice bearing HepG2 cells) was “inhibited the growth of subcutaneous tumours” and the “tumour growth inhibition rate” value (HepG2 cells [3]; tumour weight, nude mice bearing HepG2 cells) was 50.3%. For the same compound, the tumour volume (HepG2 cells [3]; vs control group) was “significantly lower than that in control group” and the tumour weight (HepG2 cells [3]; vs control group) was “lower than that of control group”.
